Paper PMC11676667, “Pharmacokinetics of Oral Cannabinoid Δ8-Tetrahydrocannabivarin and Its Main Metabolites in Healthy Participants” (Pharmaceuticals, 2024)
Read-outs that look alike come from different tables or passages of the source.

Key:
[1] = Plasma pharmacokinetics after single oral dose of Δ8-THCV in MCT oil (LC-MS/MS, non-compartmental analysis); assay type: in vivo, human; design: Clast (last quantifiable concentration): unit not given here; conditions: for plasma concentration: Predose; for concentration at 0.5 h / concentration at 1 h / concentration at 2 h / concentration at 4 h / concentration at 6 h / concentration at 8 h / AUC(0-t) / Cmax / MRT / Tmax: human; for concentration at 0.5 h / concentration at 1 h / concentration at 2 h / concentration at 4 h / concentration at 6 h / concentration at 8 h: oral; for AUC(0-t) / Cmax / MRT / Tmax: po; for MRT: read-out: MRT (mean residence time); for Tmax: read-out: tmax
Summary of the method: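 Healthy participants received single oral Δ8-THCV in MCT oil (50 mg/mL; 12.5-200 mg, or placebo) after a high-fat, high-calorie breakfast, with ≥1-week washout. Plasma (K2EDTA) sampled predose and 0.5-8 h post-dose, assayed by validated LC-MS/MS including metabolites; PK by non-compartmental analysis, sub-LLOQ values set to 0.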

[2] = system: CB2 receptors; design: method as in PMID 21470208; conditions: in vitro; cited from earlier work
[3] = 12.5 mg single oral Δ8-THCV in MCT oil, plasma, Mean (±SD)
[4] = 12.5 mg single oral Δ8-THCV in MCT oil, plasma, Median (Range)
[5] = 25 mg single oral Δ8-THCV in MCT oil, plasma, Mean (±SD)
[6] = 25 mg single oral Δ8-THCV in MCT oil, plasma, Median (Range)
[7] = 50 mg single oral Δ8-THCV in MCT oil, plasma, Mean (±SD)
[8] = 50 mg single oral Δ8-THCV in MCT oil, plasma, Median (Range)
[9] = 100 mg single oral Δ8-THCV in MCT oil, plasma, Mean (±SD)
[10] = 100 mg single oral Δ8-THCV in MCT oil, plasma, Median (Range)
[11] = 200 mg single oral Δ8-THCV in MCT oil, plasma, Mean (±SD)
[12] = 200 mg single oral Δ8-THCV in MCT oil, plasma, Median (Range)
[13] = plasma, 12.5 mg, 12.5 mg Δ8-THCV dose, Mean (SD, %CV)
[14] = plasma, 12.5 mg, 12.5 mg Δ8-THCV dose, Median (IQ Range)
[15] = plasma, 25 mg, 25 mg Δ8-THCV dose, Mean (SD, %CV)
[16] = plasma, 25 mg, 25 mg Δ8-THCV dose, Median (IQ Range)
[17] = plasma, 50 mg, 50 mg Δ8-THCV dose, Mean (SD, %CV)
[18] = plasma, 50 mg, 50 mg Δ8-THCV dose, Median (IQ Range)
[19] = plasma, 100 mg, 100 mg Δ8-THCV dose, Mean (SD, %CV)
[20] = plasma, 100 mg, 100 mg Δ8-THCV dose, Median (IQ Range)
[21] = plasma, 200 mg, 200 mg Δ8-THCV dose, Mean (SD, %CV)
[22] = plasma, 200 mg, 200 mg Δ8-THCV dose, Median (IQ Range)
[23] = plasma, 12.5 mg, 12.5 mg single oral Δ8-THCV in MCT oil, Mean (±SD)
[24] = plasma, 12.5 mg, 12.5 mg single oral Δ8-THCV in MCT oil, Median (Range)
[25] = plasma, 12.5 mg, 12.5 mg single oral Δ8-THCV in MCT oil, plasma, Mean (±SD)
[26] = plasma, 12.5 mg, 12.5 mg single oral Δ8-THCV in MCT oil, plasma, Median (Range)
[27] = plasma, 25 mg, 25 mg single oral Δ8-THCV in MCT oil, Mean (±SD)
[28] = plasma, 25 mg, 25 mg single oral Δ8-THCV in MCT oil, Median (Range)
[29] = plasma, 25 mg, 25 mg single oral Δ8-THCV in MCT oil, plasma, Mean (±SD)
[30] = plasma, 25 mg, 25 mg single oral Δ8-THCV in MCT oil, plasma, Median (Range)
[31] = plasma, 50 mg, 50 mg single oral Δ8-THCV in MCT oil, Mean (±SD)
[32] = plasma, 50 mg, 50 mg single oral Δ8-THCV in MCT oil, Median (Range)
[33] = plasma, 50 mg, 50 mg single oral Δ8-THCV in MCT oil, plasma, Mean (±SD)
[34] = plasma, 50 mg, 50 mg single oral Δ8-THCV in MCT oil, plasma, Median (Range)
[35] = plasma, 100 mg, 100 mg single oral Δ8-THCV in MCT oil, Mean (±SD)
[36] = plasma, 100 mg, 100 mg single oral Δ8-THCV in MCT oil, Median (Range)
[37] = plasma, 100 mg, 100 mg single oral Δ8-THCV in MCT oil, plasma, Mean (±SD)
[38] = plasma, 100 mg, 100 mg single oral Δ8-THCV in MCT oil, plasma, Median (Range)
[39] = plasma, 200 mg, 200 mg single oral Δ8-THCV in MCT oil, Mean (±SD)
[40] = plasma, 200 mg, 200 mg single oral Δ8-THCV in MCT oil, Median (Range)
[41] = plasma, 200 mg, 200 mg single oral Δ8-THCV in MCT oil, plasma, Mean (±SD)
[42] = plasma, 200 mg, 200 mg single oral Δ8-THCV in MCT oil, plasma, Median (Range)

## CCCc1cc(O)c2c(c1)OC(C)(C)[C@@H]1CC=C(CO)C[C@@H]21 (racemic) [11-OH-Δ8-THCV, (±)-11-hydroxy-Δ8-THCV]
[1]; [3]
  Clast (last quantifiable concentration): 0.8 (±0.2)
  tlast (time to last quantifiable concentration): 3.6 (±1.7)
[1]; [4]
  Clast (last quantifiable concentration): 0.8 (0.6–1.1)
  tlast (time to last quantifiable concentration): 4 (2–6)
[1]; [5]
  Clast (last quantifiable concentration): 0.8 (±0.1)
  tlast (time to last quantifiable concentration): 4.3 (±1.8)
[1]; [6]
  Clast (last quantifiable concentration): 0.8 (0.6–1)
  tlast (time to last quantifiable concentration): 4 (2–6)
[1]; [7]
  Clast (last quantifiable concentration): 0.9 (±0.3)
  tlast (time to last quantifiable concentration): 7.8 (±0.6)
[1]; [8]
  Clast (last quantifiable concentration): 0.8 (0.6–1.5)
  tlast (time to last quantifiable concentration): 8 (6–8)
[1]; [9]
  Clast (last quantifiable concentration): 1.4 (±0.9)
  tlast (time to last quantifiable concentration): 7.6 (±1.2)
[1]; [10]
  Clast (last quantifiable concentration): 1.1 (0.5–3.8)
  tlast (time to last quantifiable concentration): 8 (4–8)
[1]; [11]
  Clast (last quantifiable concentration): 3.7 (±2.6)
  tlast (time to last quantifiable concentration): 8 (±0)
[1]; [12]
  Clast (last quantifiable concentration): 3.1 (1.2–11.3)
  tlast (time to last quantifiable concentration): 8 (8–8)
[1]; 12.5 mg Δ8-THCV dose, Mean (SD, %CV)
  plasma concentration: 0 (±0, --) ng/mL
[1]; 12.5 mg Δ8-THCV dose, Median (IQ Range)
  plasma concentration: 0 (0–0) ng/mL
[1]; 25 mg Δ8-THCV dose, Mean (SD, %CV)
  plasma concentration: 0 (±0, --) ng/mL
[1]; 25 mg Δ8-THCV dose, Median (IQ Range)
  plasma concentration: 0 (0–0) ng/mL
[1]; 50 mg Δ8-THCV dose, Mean (SD, %CV)
  plasma concentration: 0 (±0, --) ng/mL
[1]; 50 mg Δ8-THCV dose, Median (IQ Range)
  plasma concentration: 0 (0–0) ng/mL
[1]; 100 mg Δ8-THCV dose, Mean (SD, %CV)
  plasma concentration: 0 (±0, --) ng/mL
[1]; 100 mg Δ8-THCV dose, Median (IQ Range)
  plasma concentration: 0 (0–0) ng/mL
[1]; 200 mg Δ8-THCV dose, Mean (SD, %CV)
  plasma concentration: 0 (±0, --) ng/mL
[1]; 200 mg Δ8-THCV dose, Median (IQ Range)
  plasma concentration: 0 (0–0) ng/mL
[1]; after the 200 mg dose, Δ8-THCV = 1
  median AUClast ratio Δ8-THCV-COOH/Δ8-THCV/11-OH-Δ8-THCV: 0.18
[1]; [13]
  concentration at 0.5 h: 0 ng/mL
  concentration at 1 h: 0 ng/mL
  concentration at 2 h: 0.1 ng/mL
  concentration at 4 h: 0.1 ng/mL
  concentration at 6 h: 0.1 ng/mL
  concentration at 8 h: 0 ng/mL
[1]; [14]
  concentration at 0.5 h: 0 ng/mL
  concentration at 1 h: 0 ng/mL
  concentration at 2 h: 0 ng/mL
  concentration at 4 h: 0 ng/mL
  concentration at 6 h: 0 ng/mL
  concentration at 8 h: 0 ng/mL
[1]; [15]
  concentration at 0.5 h: 0 ng/mL
  concentration at 1 h: 0.1 ng/mL
  concentration at 2 h: 0.3 ng/mL
  concentration at 4 h: 0.2 ng/mL
  concentration at 6 h: 0.2 ng/mL
  concentration at 8 h: 0 ng/mL
[1]; [16]
  concentration at 0.5 h: 0 ng/mL
  concentration at 1 h: 0 ng/mL
  concentration at 2 h: 0 ng/mL
  concentration at 4 h: 0 ng/mL
  concentration at 6 h: 0 ng/mL
  concentration at 8 h: 0 ng/mL
[1]; [17]
  concentration at 0.5 h: 0 ng/mL
  concentration at 1 h: 0.1 ng/mL
  concentration at 2 h: 0.4 ng/mL
  concentration at 4 h: 0.6 ng/mL
  concentration at 6 h: 1 ng/mL
  concentration at 8 h: 0.6 ng/mL
[1]; [18]
  concentration at 0.5 h: 0 ng/mL
  concentration at 1 h: 0 ng/mL
  concentration at 2 h: 0 ng/mL
  concentration at 4 h: 0 ng/mL
  concentration at 6 h: 0.9 ng/mL
  concentration at 8 h: 0.6 ng/mL
[1]; [19]
  concentration at 0.5 h: 0 ng/mL
  concentration at 1 h: 1.4 ng/mL
  concentration at 2 h: 1.8 ng/mL
  concentration at 4 h: 2.1 ng/mL
  concentration at 6 h: 2.4 ng/mL
  concentration at 8 h: 1.3 ng/mL
[1]; [20]
  concentration at 0.5 h: 0 ng/mL
  concentration at 1 h: 0.5 ng/mL
  concentration at 2 h: 1 ng/mL
  concentration at 4 h: 1.3 ng/mL
  concentration at 6 h: 1.5 ng/mL
  concentration at 8 h: 1.1 ng/mL
[1]; [21]
  concentration at 0.5 h: 0 ng/mL
  concentration at 1 h: 1.2 ng/mL
  concentration at 2 h: 4.5 ng/mL
  concentration at 4 h: 5.2 ng/mL
  concentration at 6 h: 4.6 ng/mL
  concentration at 8 h: 3.7 ng/mL
[1]; [22]
  concentration at 0.5 h: 0 ng/mL
  concentration at 1 h: 0 ng/mL
  concentration at 2 h: 1.8 ng/mL
  concentration at 4 h: 3.4 ng/mL
  concentration at 6 h: 3.7 ng/mL
  concentration at 8 h: 3.1 ng/mL
[1]; [23]
  AUC(0-t): 0.7 ng·h/mL
  Cmax: 0.8 ng/mL
[1]; [24]
  AUC(0-t): 0.8 ng·h/mL
  Cmax: 0.8 ng/mL
[1]; [25]
  MRT: 1.5 h
  Tmax: 3.4 h
[1]; [26]
  MRT: 1.4 h
  Tmax: 4 h
[1]; [27]
  AUC(0-t): 1.5 ng·h/mL
  Cmax: 0.9 ng/mL
[1]; [28]
  AUC(0-t): 0.8 ng·h/mL
  Cmax: 0.8 ng/mL
[1]; [29]
  MRT: 3.6 h
  Tmax: 3.7 h
[1]; [30]
  MRT: 3.6 h
  Tmax: 4 h
[1]; [31]
  AUC(0-t): 6.2 ng·h/mL
  Cmax: 2 ng/mL
[1]; [32]
  AUC(0-t): 5.3 ng·h/mL
  Cmax: 1.9 ng/mL
[1]; [33]
  MRT: 5.7 h
  Tmax: 5 h
[1]; [34]
  MRT: 6.1 h
  Tmax: 6 h
[1]; [35]
  AUC(0-t): 13.9 ng·h/mL
  Cmax: 4.3 ng/mL
[1]; [36]
  AUC(0-t): 12.4 ng·h/mL
  Cmax: 3.4 ng/mL
[1]; [37]
  MRT: 4.6 h
  Tmax: 4.2 h
[1]; [38]
  MRT: 4.3 h
  Tmax: 5 h
[1]; [39]
  AUC(0-t): 30.8 ng·h/mL
  Cmax: 8.7 ng/mL
[1]; [40]
  AUC(0-t): 29.5 ng·h/mL
  Cmax: 6.4 ng/mL
[1]; [41]
  MRT: 4.8 h
  Tmax: 4.7 h
[1]; [42]
  MRT: 4.7 h
  Tmax: 4 h
[1]; of 504 plasma samples from 15 participants after oral Δ8-THCV
  number of positive plasma samples: 157
[1]; one subject after oral Δ8-THCV in MCT oil, Figure A1
  concentration in representative plasma sample: 11.8 ng/mL
[1]; oral Δ8-THCV, plasma
  tmax later after doses greater than 50 mg compared to the 12.5 mg and 25 mg doses: 1.3 fold
[2]
  CB2 receptor activation: activate CB2 receptors
